Data set [1] deals with HEL cells. As to the kind of experiment: Cytotoxicity, cell morphology. The class given is cell-based, human. The note with it: exp. 1 and exp. 2.
Data set [2] concerns Vaccinia virus. As to the kind of experiment: microbe, parasite or virus in culture. The class given is cell-based. The note with it: for EC50: Orthopoxvirus vaccinia, HEL, read-out: EC50 Vaccinia virus.
Data set [3] concerns CrFK cells. As to the kind of experiment: Cell viability of CrFK cells, formazan-based MTS assay. Further details: species or system feline. Particulars: read-out: CC50 CrFK; cell viability, colorimetric formazan-based MTS assay. On the technique in general: Tetrazolium assays rely on reduction of a dye to a coloured formazan, in cell work by metabolically active cells.
Data set [4] deals with MDCK cells. As to the kind of experiment: Cell viability of MDCK cells, formazan-based MTS assay. Details: species or system canine. The note with it: read-out: CC50 MDCK; cell viability, colorimetric formazan-based MTS assay.
For data set [5], the system named is human lymphocyte CEM. As to the kind of experiment: Inhibition of proliferation of human T-lymphocyte CEM cells. The class given is cell-based. Particulars: for IC50: read-out: IC50 CEM; for cytostatic activity against CEM relative to 5-fluorouracil: fold more active than 5-fluorouracil.
For data set [6], the system named is human cervix carcinoma HeLa cells. As to the kind of experiment: Inhibition of proliferation of human cervix carcinoma HeLa cells. The class given is cell-based. The note with it: read-out: IC50 HeLa.
Data set [7] concerns murine leukemia L1210. As to the kind of experiment: Inhibition of proliferation of murine leukemia L1210 cells. The format is cell-based. The note with it: read-out: IC50 L1210; inhibit tumor cell proliferation by 50%.
In data set [8] the test system is Coxsackie virus B4. The format is cell-based. Particulars: Vero cell cultures; DS-10.000 in μg/ml.
Data set [9] in a line: Cell viability of CrFK cells, formazan-based MTS assay. Details: species or system feline. Particulars: cat, CrFK cells.
Data set [10] can be described thus: Cell viability of MDCK cells, formazan-based MTS assay. Details: species or system canine. The note with it: dog, MDCK cells.
The test system of data set [11] is HSV and Vaccinia viruses. As to the kind of experiment: microbe, parasite or virus in culture. The class given is cell-based, herpes simplex virus; vaccinia virus. Particulars: Orthopoxvirus vaccinia, read-out: EC50 against HSV and Vaccinia viruses.
Data set [12] concerns three strains of herpes simplex virus. The format is cell-based. The note with it: HEL, read-out: EC50 against three strains of herpes simplex virus.
Data set [13] deals with L1210, CEM and HeLa cell lines. As to the kind of experiment: Cytostatic activity on L1210, CEM and HeLa cell lines. The format is cell-based, murine; human. The note with it: fold more cytostatic than cis-9d / cis-9f.
Data set [14] has as its system cytomegalovirus. As to the kind of experiment: Antiviral activity against cytomegalovirus in HEL cells. The format is cell-based, human cytomegalovirus (HCMV). The note with it: read-out: EC50 toward cytomegalovirus, strain not specified.
Where [15] appears, read: Table 3 (cytomegalovirus assays).
The mark [16] stands for this setting: inhibit tumor cell proliferation by 50%.

Values joined by “and” are separate entries in the source; they are usually repeats but may differ in a detail not shown here. Identical values can stand only once. Like-named read-outs stand apart in the source and are kept apart here.

On to `CCCCN1C(=O)c2cccc3cc(NC(=O)[C@@H]4C[C@@H](P(=O)(OCC)OCC)N(C)O4)cc(c23)C1=O` (racemic) [trans-9b, Diethyl trans-5-(N-butylnaphthalimide-3-ylcarbamoyl)-2-methylisoxazolidin-3-yl-3-phosphonate], for which the “Cytotoxicity Cell morphology MCC” value in data set [1] (setting [15]) is reported as 100 μM; in data set [1] (Table 4 (VZV assays)) it was more than 100 μM.
Turning to `O=c1[nH]c(=O)n([C@H]2C[C@H](O)[C@@H](CO)O2)cc1/C=C/Br` [Brivudin, brivudin, reference compound], in data set [2], the EC50 (as a rule, the concentration giving half of the maximal effect) was in the range of 17 to 22 µM. The “Cytotoxicity Cell morphology MCC” value in data set [1] (Table 4 (VZV assays)) is recorded as more than 300 μM.
In the case of `CCOP(=O)(OCC)[C@H]1C[C@H](CN2C(=O)c3cccc4cc(NC(C)=O)cc(c34)C2=O)ON1C` (relative stereo) [trans-10d/cis-10d (93:7), Diethyl trans-5-(5-acetamido-1,3-dioxo-2,3-dihydro-1H-benzo[de]izochinolin-2-ylmethyl)-2-methylisoxazolidin-3-yl-3-phosphonate], the CC50 in [3] and in [4] was more than 100 µM each time. The IC50 (commonly the concentration needed to halve the response being measured) in [5] (setting [16]) turned out to be 125 ± 4 µM; in data set [6] (setting [16]), 111 ± 3 µM; in [7] it was 136 ± 14 µM.
On to `O=c1[nH]cc(F)c(=O)[nH]1` [5-Fluorouracil, reference compound], for which the IC50 amounted to 18 ± 5 µM in [5] (Homo sapiens, Lymphocyte) and 0.54 ± 0.12 µM in data set [6] (Homo sapiens, HeLa).
In the case of `Nc1nc2c(ncn2COCCO)c(=O)[nH]1` [Acyclovir, acyclovir], the “activity against vaccinia virus, in words” value in data set [2] was “inactive”.
On to dextran sulfate [DS-10.000], for which, in data set [8], the “EC50 Coxsackie virus B4” value was more than 100 µg/mL.
Take `CCOP(=O)(OCC)[C@H]1C[C@H](CN2C(=O)c3cccc4cc(N)cc(c34)C2=O)ON1C` (relative stereo) [trans-10c/cis-10c (93:7), Diethyl trans-5-(5-amino-1,3-dioxo-2,3-dihydro-1H-benzo[de]izochinolin-2-ylmethyl)-2-methylisoxazolidin-3-yl-3-phosphonate]: the CC50 in data set [3] and in data set [4] was more than 100 µM throughout. Moreover, the IC50 in data set [5] (setting [16]) is 99 ± 2 µM; in data set [6] (setting [16]), 101 ± 58 µM; in [7], 95 ± 42 µM.
Consider `CCCCN1C(=O)c2cccc3cc(NC(=O)[C@H]4C[C@@H](P(=O)(OCC)OCC)N(C)O4)cc(c23)C1=O` (racemic) [cis-9b, Diethyl cis-5-(N-butylnaphthalimide-3-ylcarbamoyl)-2-methylisoxazolidin-3-yl-3-phosphonate], for which the CC50 in data set [9] and in data set [10] was more than 100 µM each time. Besides, the “Cytotoxicity Cell morphology MCC” value is 100 μM in [1] (setting [15]) and more than 100 μM in [1] (Table 4 (VZV assays)). Moreover, the IC50 in data set [6] (Homo sapiens, HeLa) was 25 ± 3 µM.
Take `CCOP(=O)(OCC)[C@@H]1C[C@H](C(=O)Nc2cc3c4c(cccc4c2)C(=O)N(CC(C)C)C3=O)ON1C` (racemic) [cis-9c, Diethyl cis-5-(N-isobutylnaphthalimide-3-ylcarbamoyl)-2-methylisoxazolidin-3-yl-3-phosphonate]: the “Cytotoxicity Cell morphology MCC” value in [1] (setting [15]) and in data set [1] (Table 4 (VZV assays)) was more than 100 μM in each case.
As for `Nc1ccn(C[C@@H](CO)OCP(=O)(O)O)c(=O)n1.O.O` [Cidofovir, cidofovir, reference compound], the “Cytotoxicity Cell morphology MCC” value in [1] (setting [15]) was more than 350 μM.
On to `CCOP(=O)(OCC)[C@@H]1C[C@@H](C(=O)Nc2cc3c4c(cccc4c2)C(=O)N(CCN(C)C)C3=O)ON1C` (racemic) [trans-9d, Diethyl trans-5-[N-(2-dimethylamino)ethylnaphthalimide-3-ylcarbamoyl]-2-methylisoxazolidin-3-yl-3-phosphonate], for which the EC50 lay in the range of 45 to 58 µM in data set [11] and 45 to 100 µM in [12]. In [5], the “cytostatic activity against CEM relative to 5-fluorouracil” value was “five-fold”. The entries for the “Cytotoxicity Cell morphology MCC” value in [1] (setting [15]) and in data set [1] (Table 4 (VZV assays)) were 100 μM and more than 100 μM, respectively. In [13], the “cytostatic activity of trans-isomer relative to corresponding cis-isomer” value is given as “two-fold”.
For `CCCN1C(=O)c2cccc3cc(NC(=O)[C@@H]4C[C@@H](P(=O)(OCC)OCC)N(C)O4)cc(c23)C1=O` (racemic) [trans-9a, Diethyl trans-5-(N-propylnaphtalimide-3-ylcarbamoyl)-2-methylisoxazolidin-3-yl-3-phosphonate], in data set [9], the CC50 (in general, the concentration that lowers cell viability or growth by half) was more than 100 µM. In addition, the “Cytotoxicity Cell morphology MCC” value in data set [1] (setting [15]) and in [1] (Table 4 (VZV assays)) was more than 100 μM throughout.
As to `CCOP(=O)(OCC)[C@@H]1C[C@H](C(=O)Nc2cc3c4c(cccc4c2)C(=O)N(CCN2CCCC2)C3=O)ON1C` (racemic) [cis-9f, Diethyl cis-5-[N-(2-pirolidyn-1-yl)ethylnaphthalimide-3-ylcarbamoyl]-2-methylisoxazolidin-3-yl-3-phosphonate], the EC50 in data set [2] was 45 to 100 µM. For the same molecule, the “Cytotoxicity Cell morphology MCC” value in data set [1] (setting [15]) is more than 100 μM; in data set [1] (Table 4 (VZV assays)), 100 μM and >100 μM.
Turning to `CCOP(=O)(OCC)[C@@H]1C[C@H](C(=O)Nc2cc3c4c(cccc4c2)C(=O)N(CCN(C)C)C3=O)ON1C` (racemic) [cis-9d, Diethyl cis-5-[N-(2-dimethylamino)ethylnaphthalimide-3-ylcarbamoyl]-2-methylisoxazolidin-3-yl-3-phosphonate], the EC50 was in the range of 45 to 58 µM in data set [11] and 45 to 100 µM in data set [12]. Also, the “Cytotoxicity Cell morphology MCC” value in [1] (setting [15]) is more than 100 μM; in data set [1] (Table 4 (VZV assays)), 100 μM.
For the molecule `Nc1nc2c(ncn2COC(CO)CO)c(=O)[nH]1` [Ganciclovir, ganciclovir, reference compound], in [2], the “activity against vaccinia virus, in words” value is “inactive”. The “Cytotoxicity Cell morphology MCC” value in data set [1] (setting [15]) is given as more than 350 μM.
In data set [9], `CCOP(=O)(OCC)[C@@H]1C[C@@H](C(=O)Nc2cc3c4c(cccc4c2)C(=O)N(CC(C)C)C3=O)ON1C` [trans-9c, Diethyl trans-5-(N-isobutylnaphthalimide-3-ylcarbamoyl)-2-methylisoxazolidin-3-yl-3-phosphonate] displayed a CC50 of more than 100 µM. The “Cytotoxicity Cell morphology MCC” value in data set [1] (setting [15]) and in data set [1] (Table 4 (VZV assays)) was more than 100 μM in each case.
On to `CCOP(=O)(OCC)[C@H]1C[C@H](CN2C(=O)c3cccc4cccc(c34)C2=O)ON1C` (relative stereo) [trans-10a/cis-10a (93:7), Diethyl trans-5-(1,3-dioxo-2,3-dihydro-1H-benzo[de]izochinolin-2-ylmethyl)-2-methylisoxazolidin-3-yl-3-phosphonate], for which the CC50 in [3] and in data set [4] was more than 100 µM in each case. Also, the figures for the half-inhibitory concentration (IC50) in data set [5] (setting [16]), in data set [6] (setting [16]) and in [7] were 111 ± 14 µM, 77 ± 20 µM and 180 ± 47 µM, respectively.
Turning to `CCOP(=O)(OCC)[C@@H]1C[C@@H](C(=O)Nc2cc3c4c(cccc4c2)C(=O)N(CCN2CCCC2)C3=O)ON1C` (racemic) [trans-9f, Diethyl trans-5-[N-(2-pirolidyn-1-yl)ethylnaphthalimide-3-ylcarbamoyl]-2-methylisoxazolidin-3-yl-3-phosphonate], the results for the EC50 in [14], in data set [11] and in data set [12] were 8.9 to 20 µM, 45 to 58 µM and 45 to 100 µM, respectively. For the same molecule, the “cytostatic activity against CEM relative to 5-fluorouracil” value in data set [5] is given as “five-fold”. The “Cytotoxicity Cell morphology MCC” value in [1] (setting [15]) and in data set [1] (Table 4 (VZV assays)) was 100 μM throughout. Also, the “cytostatic activity of trans-isomer relative to corresponding cis-isomer” value in data set [13] is reported as “two-fold”.
As to `CCOP(=O)(OCC)[C@@H]1C[C@H](C(=O)Nc2cc3c4c(cccc4c2)C(=O)N(CCN(CC)CC)C3=O)ON1C` (racemic) [cis-9e, Diethyl cis-5-[N-(2-diethylamino)ethylnaphthalimide-3-ylcarbamoyl]-2-methylisoxazolidin-3-yl-3-phosphonate], the CC50 in [10] is more than 100 µM.
On to `CCOP(=O)(OCC)[C@H]1C[C@H](CN2C(=O)c3cccc4cc([N+](=O)[O-])cc(c34)C2=O)ON1C` (relative stereo) [trans-10b/cis-10b (94:6), Diethyl trans-5-(5-nitro-1,3-dioxo-2,3-dihydro-1H-benzo[de]izochinolin-2-ylmethyl)-2-methylisoxazolidin-3-yl-3-phosphonate], for which the CC50 in data set [3] and in [4] was more than 100 µM each time. The figures for the IC50 in data set [5] (setting [16]), in data set [6] (setting [16]) and in data set [7] were 51 ± 6 µM, 20 ± 3 µM and 34 ± 6 µM, respectively.
Molecule `CCOP(=O)(OCC)[C@@H]1C[C@@H](C(=O)Nc2cc3c4c(cccc4c2)C(=O)N(CCN(CC)CC)C3=O)ON1C` (racemic) [trans-9e, Diethyl trans-5-[N-(2-diethylamino)ethylnaphthalimide-3-ylcarbamoyl]-2-methylisoxazolidin-3-yl-3-phosphonate] registered a CC50 in data set [9] of more than 100 µM.
For `CCCN1C(=O)c2cccc3cc(NC(=O)[C@H]4C[C@@H](P(=O)(OCC)OCC)N(C)O4)cc(c23)C1=O` (racemic) [cis-9a, Diethyl cis-5-(N-propylnaphthalimide-3-ylcarbamoyl)-2-methylisoxazolidin-3-yl-3-phosphonate], the “Cytotoxicity Cell morphology MCC” value in data set [1] (setting [15]) and in data set [1] (Table 4 (VZV assays)) was more than 100 μM throughout.
